Reference: PubChem BioAssay AID248 (DTP/NCI, 2004)
“And” between values parts separate entries of the source, which are not always exact repeats. Equal values may be shown once. Toxic doses and inconclusive results are not listed. No stated cut-off is given here; in the data, active means T/C of 150% or more; inactive means T/C below 125%.

Test system: L1210 leukemia ip in BDF1 mice, survival T/C
Assay: NCI In Vivo Anticancer Drug Screen. Data for tumor model L1210 Leukemia (intraperitoneal) in B6D2F1 (BDF1) mice
Details: endpoint: mean survival time, higher = longer survival
Method in brief: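 Each compound was tested against a transplantable tumor grown in mice. The endpoint was survival, with treated animals benchmarked against vehicle controls as a simple ratio.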

[1] = dose: 100.0 mg/kg/injection, schedule: Q04DX002 (ip), vehicle: carboxymethylcellulose (CMC)
[2] = dose: 200.0 mg/kg/injection, schedule: Q04DX002 (ip), vehicle: carboxymethylcellulose (CMC)
[3] = dose: 400.0 mg/kg/injection, schedule: Q04DX002 (ip), vehicle: carboxymethylcellulose (CMC)
[4] = dose: 100.0 mg/kg/injection, schedule: Q01DX001 (ip), vehicle: carboxymethylcellulose (CMC)
[5] = dose: 50.0 mg/kg/injection, schedule: Q01DX001 (ip), vehicle: saline
[6] = dose: 100.0 mg/kg/injection, schedule: Q01DX001 (ip), vehicle: saline
[7] = dose: 200.0 mg/kg/injection, schedule: Q01DX001 (ip), vehicle: saline

Measured: T/C

COc1cc2cc3c4cc(OC)c(OC)cc4cc[n+]3c(/C=C/c3cccc([N+](=O)[O-])c3)c2cc1OC
inactive: [1] 113 % of control | dose: 100.0 mg/kg/injection, schedule: Q04DX002 (ip), vehicle: other 97 % of control and 105 % of control and 109 % of control | dose: 100.0 mg/kg/injection, schedule: Q04DX003 (ip), vehicle: other 107 % of control | [2] 109 % of control | dose: 200.0 mg/kg/injection, schedule: Q04DX002 (ip), vehicle: other 94 % of control and 104 % of control and 123 % of control | dose: 200.0 mg/kg/injection, schedule: Q04DX003 (ip), vehicle: other 119 % of control | [3] 109 % of control | dose: 400.0 mg/kg/injection, schedule: Q04DX002 (ip), vehicle: other 108 % of control and 119 % of control | dose: 400.0 mg/kg/injection, schedule: Q04DX003 (ip), vehicle: other 105 % of control | dose: 800.0 mg/kg/injection, schedule: Q04DX002 (ip), vehicle: other 112 % of control

COc1ccc(C=Nc2ccc(C(=O)O)cc2)cc1
inactive: dose: 100.0 mg/kg/injection, schedule: Q04DX002 (ip), vehicle: saline with Tween-80 100 % of control | dose: 200.0 mg/kg/injection, schedule: Q04DX002 (ip), vehicle: saline with Tween-80 110 % of control | dose: 400.0 mg/kg/injection, schedule: Q04DX002 (ip), vehicle: saline with Tween-80 89 % of control

Cc1ccc(NC(=O)N(C)N=O)cc1
inactive: dose: 17.7 mg/kg/injection, schedule: Q01DX009 (ip), vehicle: carboxymethylcellulose (CMC) 118 % of control | dose: 26.6 mg/kg/injection, schedule: Q01DX009 (ip), vehicle: carboxymethylcellulose (CMC) 117 % of control | dose: 40.0 mg/kg/injection, schedule: Q01DX009 (ip), vehicle: carboxymethylcellulose (CMC) 120 % of control | dose: 50.0 mg/kg/injection, schedule: Q01DX001 (ip), vehicle: Klucel (hydroxypropylcellulose) (HPC) 119 % of control | dose: 60.0 mg/kg/injection, schedule: Q01DX009 (ip), vehicle: carboxymethylcellulose (CMC) 88 % of control | dose: 89.0 mg/kg/injection, schedule: Q01DX001 (ip), vehicle: carboxymethylcellulose (CMC) 107 % of control | dose: 100.0 mg/kg/injection, schedule: Q01DX001 (ip), vehicle: Klucel (hydroxypropylcellulose) (HPC) 111 % of control | [4] 116 % of control | dose: 133.0 mg/kg/injection, schedule: Q01DX001 (ip), vehicle: carboxymethylcellulose (CMC) 122 % of control | dose: 200.0 mg/kg/injection, schedule: Q01DX001 (ip), vehicle: Klucel (hydroxypropylcellulose) (HPC) 114 % of control | dose: 400.0 mg/kg/injection, schedule: Q01DX001 (ip), vehicle: Klucel (hydroxypropylcellulose) (HPC) 114 % of control

COC(=O)C(O)c1ccc2c(c1)OCO2 (stereo not given)
inactive: dose: 100.0 mg/kg/injection, schedule: Q04DX003 (ip), vehicle: saline sonified 97 % of control | dose: 200.0 mg/kg/injection, schedule: Q04DX003 (ip), vehicle: saline sonified 97 % of control | dose: 400.0 mg/kg/injection, schedule: Q04DX003 (ip), vehicle: saline sonified 93 % of control

C[N+](C)(Cc1ccccc1)Cc1ccccc1
inactive: dose: 5.0 mg/kg/injection, schedule: Q01DX001 (ip), vehicle: saline 96 % of control | dose: 10.0 mg/kg/injection, schedule: Q01DX001 (ip), vehicle: saline 98 % of control | dose: 20.0 mg/kg/injection, schedule: Q01DX001 (ip), vehicle: saline 102 % of control | dose: 40.0 mg/kg/injection, schedule: Q01DX001 (ip), vehicle: saline 102 % of control | dose: 75.0 mg/kg/injection, schedule: Q01DX001 (ip), vehicle: saline 105 % of control | dose: 80.0 mg/kg/injection, schedule: Q01DX001 (ip), vehicle: saline 104 % of control

O=c1[nH]c(=S)[nH]cc1CN(CCO)CCO
inactive: [5] 97 % of control | [6] 90 % of control | [7] 95 % of control

CC(=O)Nc1ccc(C(=O)O)cc1[N+](=O)[O-]
inactive: [4] 99 % of control | dose: 100.0 mg/kg/injection, schedule: Q01DX009 (ip), vehicle: carboxymethylcellulose (CMC) 95 % of control and 105 % of control | dose: 100.0 mg/kg/injection, schedule: Q04DX002 (ip), vehicle: Klucel (hydroxypropylcellulose) (HPC) 95 % of control | [1] 106 % of control and 90 % of control | dose: 100.0 mg/kg/injection, schedule: Q04DX003 (ip), vehicle: carboxymethylcellulose (CMC) 97 % of control | dose: 200.0 mg/kg/injection, schedule: Q01DX001 (ip), vehicle: carboxymethylcellulose (CMC) 97 % of control | dose: 200.0 mg/kg/injection, schedule: Q01DX009 (ip), vehicle: carboxymethylcellulose (CMC) 98 % of control and 107 % of control | dose: 200.0 mg/kg/injection, schedule: Q04DX002 (ip), vehicle: Klucel (hydroxypropylcellulose) (HPC) 98 % of control | [2] 93 % of control and 101 % of control | dose: 200.0 mg/kg/injection, schedule: Q04DX003 (ip), vehicle: carboxymethylcellulose (CMC) 105 % of control | dose: 400.0 mg/kg/injection, schedule: Q01DX009 (ip), vehicle: carboxymethylcellulose (CMC) 93 % of control and 91 % of control | dose: 400.0 mg/kg/injection, schedule: Q04DX002 (ip), vehicle: Klucel (hydroxypropylcellulose) (HPC) 98 % of control | [3] 93 % of control and 90 % of control | dose: 400.0 mg/kg/injection, schedule: Q04DX003 (ip), vehicle: carboxymethylcellulose (CMC) 91 % of control

COc1ccc2c3c1OC1C4(CCC5C(C2)N(CC2CC2)CCC351)OCCO4 (stereo not given)
inactive: dose: 12.5 mg/kg/injection, schedule: Q04DX003 (ip), vehicle: Klucel (hydroxypropylcellulose) (HPC) 101 % of control | dose: 25.0 mg/kg/injection, schedule: Q01DX009 (ip), vehicle: Klucel (hydroxypropylcellulose) (HPC) 95 % of control | dose: 25.0 mg/kg/injection, schedule: Q04DX003 (ip), vehicle: Klucel (hydroxypropylcellulose) (HPC) 103 % of control | dose: 50.0 mg/kg/injection, schedule: Q01DX009 (ip), vehicle: Klucel (hydroxypropylcellulose) (HPC) 94 % of control | dose: 50.0 mg/kg/injection, schedule: Q04DX003 (ip), vehicle: Klucel (hydroxypropylcellulose) (HPC) 101 % of control | dose: 100.0 mg/kg/injection, schedule: Q01DX009 (ip), vehicle: Klucel (hydroxypropylcellulose) (HPC) 91 % of control | dose: 100.0 mg/kg/injection, schedule: Q04DX003 (ip), vehicle: Klucel (hydroxypropylcellulose) (HPC) 101 % of control

COc1ccc([N+](=O)[O-])cc1[I+]c1cc([N+](=O)[O-])ccc1OC
inactive: [5] 111 % of control | [6] 90 % of control | [7] 96 % of control | dose: 400.0 mg/kg/injection, schedule: Q01DX001 (ip), vehicle: saline 90 % of control

CCOC(=O)C1(C(=O)OCC)C/C=C/CC(C(=O)OCC)(C(=O)OCC)C/C=C/C1
inactive: dose: 100.0 mg/kg/injection, schedule: Q01DX009 (ip), vehicle: saline 90 % of control | dose: 100.0 mg/kg/injection, schedule: Q04DX003 (ip), vehicle: saline 98 % of control | dose: 200.0 mg/kg/injection, schedule: Q01DX009 (ip), vehicle: saline 102 % of control | dose: 200.0 mg/kg/injection, schedule: Q04DX003 (ip), vehicle: saline 95 % of control | dose: 400.0 mg/kg/injection, schedule: Q01DX009 (ip), vehicle: saline 92 % of control | dose: 400.0 mg/kg/injection, schedule: Q04DX003 (ip), vehicle: saline 90 % of control

CC(C)(C)c1cccc(C(C)(C)C)n1
inactive: dose: 100.0 mg/kg/injection, schedule: Q04DX003 (ip), vehicle: saline with Tween-80 97 % of control | dose: 200.0 mg/kg/injection, schedule: Q04DX003 (ip), vehicle: saline with Tween-80 105 % of control | dose: 400.0 mg/kg/injection, schedule: Q04DX003 (ip), vehicle: saline with Tween-80 115 % of control
